Reference: patent US20150141460A1, “Anti-inflammatory Compositions” (Cambridge Enterprise Limited, priority 2007, published 2015)
“Also recorded” adds a separate entry of the source.

Legend:
[1] = Stability in rat liver microsome preparation; format: in vitro ADME; details: 1 μM, 1 hour at 37° C.
Experimental: (§1) An obvious concern related to this molecule was the stability of the C—Cl bond. We therefore examined the stability of (VIII) in vitro, both in physiological saline and in a rat liver microsome preparation. Encouragingly, less than 2% of (VIII) had undergone hydrolysis (determined by LC/MS, with dual ion detection of the hydrolysis product (V) and the parent compound (VIII)) even after 24 hours at 37° C. […] As a result, we conclude that compound (VIII) has similar in vitro stability and intrinsic clearance to (I′).

[2] = Pharmacokinetics following a single dose in rat (1 mg/kg iv, 3 mg/kg oral), LC-MS/MS, one-compartment model; format: in vivo; details: for bioavailability: 3 mg/kg oral in 1% CMC vs 1 mg/kg iv, one-compartment model, read-out: F (%) oral bioavailability; for Vd: read-out: Vss (L/kg) volume of distribution; for half-life: intravenous dosing 1 mg/kg, read-out: t1/2 (mins) dominant plasma half-life
Experimental: Compounds were administered as a single dose (either 1 mg/kg bodyweight in 5% DMSO via the intravenous route or 3 mg/kg in 1% carboxymethylcellulose via the oral route) to three adult rats (using different rats for each compound and each route of administration).
Blood was then sampled at various time points (including just prior to dose administration) out to 24 hrs post dose, and the level of the various compounds was assessed using a validated LC-MS/MS assay. Briefly, 3-5 μl of the deproteinised sample was applied to a Waters Atlantis (C18 20×2.1 mm, 3 μm bead size) reverse phase chromatography column equilibrated in 0.1% formic acid in 95:5 water:actetonitrile. Over 3.5 minutes bound material was gradient eluted reaching 0.1% formic acid in 5:95 water:acetonitrile, followed by a step gradient back to 0.1% formic acid in 95:5 water:acetonitrile. The column eluent was then directed to an Applied Biosystems API 4000/3200 QTrap MS/MS mass spectrometer, with a TurboIonspray™ ion source operating in positive ion mode. The interface temperature was set at 650° C., with a 40 ms dwell time for each MRM transition, monitoring the following ions:
The internal standard in each determination was the related compound (S)-3-(2′,2′-dimethyl-propanoylamino)-caprolactam, which was spiked into the sample prior to deproteinization. The lower limit of quantitation (LLOQ) for this assay was 2.4 ng/ml for each compound except (I′), where it was 38.1 ng/ml.
Following LC-MS/MS analysis of each collected sample, the pharmacokinetic disposition of the compound was modelled using Kinetica software, a well known software package for such applications.
Compounds (VI) and (VII) were subject to pharmacokinetic analysis in rat using exactly the same protocols previous applied for compounds (I) through (V) in example 1.
We therefore subjected (VIII) to pharmacokinetic analysis in rat using exactly the same protocols previous applied for compounds (I′) through (VII) in examples 1 and 7.
The isolated (R)-enantiomer of (I) was therefore synthesised (exactly as described herein for the isolated (S)-enantiomer, but replacing the (S)-ornithine starting material with commercially available (R)-ornithine of high stereochemical purity), and the PK properties of this agent, in rat, was determined using the identical methodology described above (see Examples 1, 7 and 8).

[3] = In vitro stability (hydrolysis of C-Cl bond) in physiological saline, LC/MS; format: physicochemical; details: after 24 hours at 37° C.
Experimental: as §1

NK2 receptor = molecular target: T1, NK2 receptor (Homo sapiens, UniProt P21452); test: CEREP panel binding, NK2 receptor; details: estimated from single concentration 10 μM; read-out: estimated ED50 for interaction with the NK2 receptor
T1 construct: purchased CEREP (screening panel)
T1 sequence (P21452 1-398): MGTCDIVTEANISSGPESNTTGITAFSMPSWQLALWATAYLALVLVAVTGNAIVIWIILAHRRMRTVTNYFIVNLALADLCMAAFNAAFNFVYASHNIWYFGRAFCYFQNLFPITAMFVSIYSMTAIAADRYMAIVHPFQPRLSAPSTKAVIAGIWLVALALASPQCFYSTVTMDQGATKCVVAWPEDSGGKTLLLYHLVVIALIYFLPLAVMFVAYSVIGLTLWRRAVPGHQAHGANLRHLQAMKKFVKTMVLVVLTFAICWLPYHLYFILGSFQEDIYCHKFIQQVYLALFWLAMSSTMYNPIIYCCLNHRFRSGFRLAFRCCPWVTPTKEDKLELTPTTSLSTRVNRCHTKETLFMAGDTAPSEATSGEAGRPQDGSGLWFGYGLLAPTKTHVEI
Experimental: FIGS. 5A-5F show the profile of cross-reactivity for each of the five compounds (I′) to (V) (FIG. 5A: (II); FIG. 5B: (III); FIG. 5C: (V); FIG. 5D: (I′) and FIG. 5E: (IV)) against a panel of 75 different receptors that compose the CEREP panel (see text). The compounds were tested at a single concentration (10 μM), and the inhibition of binding (Y-axis of each histogram) for a known ligand to each of the 75 receptors is reported (−100% therefore represents a 2-fold increase in binding of the specific ligand in the presence of the test compound). All reactions were performed in duplicate, and the bars represent the mean (no estimate of the replicate error is shown to simplify the graphs). Only a 50% or greater inhibition (or stimulation) of binding (representing an ED50 below 10 μM for the interaction of the test compound with the particular receptor) was considered statistically and biologically significant in this screening assay. For the five compounds tested here, only one interaction (that of compound (II) with the NK2 receptor, marked by the arrowhead in FIG. 5A) was considered potentially significant, although even this interaction was weak (estimated ED50 5-10 μM).
Binding to non-target receptors was assessed using similar protocols, exploiting specific radioligands for each receptor which are well known in the art. […]

[4] = Identification of the primary metabolites in pooled rat urine by LC-MS-MS; format: in vivo; details: single oral dose 3 mg/kg in 1% CMC, pooled urine over 24 hrs, qualitative, 3 mg/kg
Experimental: Urine was collected from rats exposed to a single oral dose (3 mg/kg in 1% CMC) of each compound over a 24 hour period in metabolic cages. The pooled urine sample was then subjected to full scan mass spectral analysis, using the same LC-MS conditions as described in example 1 above. Further MS-MS analysis of the product ions was then performed, and likely fragmentations/re-arrangements assigned from the publicly available Metabolite ID database.
For the major metabolites, the assigned structures were confirmed by synthesis of authentic samples, using methods well known in the art, which were subject to LC-MS-MS analysis under the same conditions as the urine samples.
Note that metabolite ID studies provide only qualitative estimates of the relative amounts of the different metabolites present, and separately validated assays with appropriate internal standards would be required to quantitate each metabolite species.

[5] = tested on: S. Typhinurium (TA102, TA98 and TA100); test: AMES test, revertant colony formation; format: cell-based; details: at 5 mg/ml
Experimental: The five compounds were subjected to a standard AMES test to assess likely genotoxicity. Three His-auxotroph strains of S. Typhinurium (TA102, TA98 and TA100) were treated with each of the compounds at 5 concentrations (up to 5 mg/ml) in the presence and absence of S9 rat liver microsomal metabolising system. The number of revertant colonies was then determined by plating on trace-His minimal media.

[6] = plasma, averaged across three rats
[7] = plasma, iv, 1 mg/kg, averaged across three rats

degradation compared to a no NADPH blank run [1] | clearance, fold higher than (I′) [2] | level of analyte in plasma following oral dosing ([2]; all time-points, limit of quantitation ˜2 ng/ml) | AUC(0-t) ([2]; blood, single oral dose 3 mg/kg in 1% CMC, Tables 7-9, read-out: Exposure (min · ng/ml), oral exposure AUC 0-t (converted)) [ng·h/mL] | clearance [2, 7] [mL/min/kg] | hydrolysis to (V) [3] | SMILES | oral bioavailability [2] | bioavailability [2, 6] [%] | Vd [2, 7] [L/kg] | half-life [2, 7] [min] | IC50 (NK2 receptor) [µM] | major metabolites / route of metabolism detected in urine [4] | effect on bacterial lawn growth [5]
less than 10% | more than 20 fold | below the limit of quantitation | < 1.67 | 62.8 | less than 2% | O=C1NCCCC[C@@H]1NC(=O)C12CC3CC(CC(Cl)(C3)C1)C2 [(VIII)] | no detectable oral bioavailability whatsoever | < 1 | 0.7 | 15 |  |  | 
 |  |  |  |  |  | O=C1NCCCC[C@@H]1NC(=O)C12CC3CC(CC(C3)C1)C2 [Compound (II), 3-(adamantane-1-carbonylamino)-caprolactam] |  | < 1 | 0.8 | 16 | 5 to 10 | cytochrome P450-mediated hydroxylation; also recorded: rapidly converted to (V) in vivo | inhibition of bacterial lawn growth
